According to patent US9359358B2, “Cyclohexyl azetidine derivatives as JAK inhibitors” (Incyte Holdings Corporation, priority 2011, dated 2016):
Structures can show the parent of a compound that is named as a salt.

Columns and labels:
[1] = target: T1, human JAK1 (Homo sapiens, UniProt P23458); assay: In Vitro JAK Kinase Assay (HTRF, phosphorylation of a biotinylated peptide), JAK1; type: biochemical; settings: catalytic domain a.a. 837-1142, assay of Example A
T1 construct: human JAK1 (a.a. 837-1142); His tag (N); made in house; host or cells: insect cells (baculovirus)
Outline: (§1)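 HTRF detection (SA-APC plus Eu-labeled anti-phosphotyrosine Py20, 40 min after EDTA stop) quantified biotinylated-peptide phosphorylation. Kinase reactions with human JAK1 or JAK2 catalytic domains lasted 1 h at room temperature.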

[2] = target: T2, human JAK2 (Homo sapiens, UniProt O60674); assay: In Vitro JAK Kinase Assay (HTRF, phosphorylation of a biotinylated peptide), JAK2; type: biochemical; settings: assay of Example A
T2 construct: JAK2 (a.a. 828-1132); His tag (N); made in house; host or cells: insect cells (baculovirus)
Outline: as §1

T1 sequence (P23458 849-1154): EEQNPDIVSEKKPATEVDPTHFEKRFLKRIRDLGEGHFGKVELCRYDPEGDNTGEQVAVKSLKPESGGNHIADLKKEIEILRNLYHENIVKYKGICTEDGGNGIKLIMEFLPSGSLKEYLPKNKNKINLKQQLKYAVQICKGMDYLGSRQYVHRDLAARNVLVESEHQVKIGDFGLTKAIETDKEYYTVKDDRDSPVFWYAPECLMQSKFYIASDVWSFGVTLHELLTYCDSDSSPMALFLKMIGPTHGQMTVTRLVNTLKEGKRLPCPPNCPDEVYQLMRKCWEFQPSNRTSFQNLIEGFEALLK
T2 sequence (O60674 828-1132): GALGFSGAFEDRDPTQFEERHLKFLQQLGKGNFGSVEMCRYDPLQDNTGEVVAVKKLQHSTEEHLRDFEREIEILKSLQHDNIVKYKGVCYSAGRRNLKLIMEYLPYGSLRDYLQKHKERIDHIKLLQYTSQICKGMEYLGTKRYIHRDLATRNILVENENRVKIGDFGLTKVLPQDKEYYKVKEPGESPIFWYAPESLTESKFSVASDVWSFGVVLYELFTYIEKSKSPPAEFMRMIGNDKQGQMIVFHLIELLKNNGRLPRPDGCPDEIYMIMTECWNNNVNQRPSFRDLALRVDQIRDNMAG

Row | SMILES | IC50 ([1]; Table 4) [nM] | JAK2/JAK1 IC50 ratio ([2]; Table 4) | IC50 ([1]; Table 5) [nM] | JAK2/JAK1 IC50 ratio ([2]; Table 5)
1 | CC(O)c1cc(OC2CCC(N3CC(CC#N)(n4cc(-c5ncnc6[nH]ccc56)cn4)C3)CC2)nc(C(F)(F)F)n1 (single isomer, unassigned) [Example 58, {1-(cis-4-{[6-(1-hydroxyethyl)-2-(trifluoromethyl)pyrimidin-4-yl]oxy}cyclohexyl)-3-[4-(7H-pyrrolo[2,3-d]pyrimidin-4-yl)-1H-pyrazol-1-yl]azetidin-3-yl}acetonitrile tris(trifluoroacetate) (salt)] | < 10 | ≧10 | – | –
2 | N#CCC1(n2cc(-c3ncnc4[nH]ccc34)cn2)CN([C@H]2CC[C@@H](Oc3cc(CN4CC(F)C4)nc(C(F)(F)F)n3)CC2)C1 [Example 37, {1-(cis-4-{[6-[(3-fluoroazetidin-1-yl)methyl]-2-(trifluoromethyl)pyrimidin-4-yl]oxy}cyclohexyl)-3-[4-(7H-pyrrolo[2,3-d]pyrimidin-4-yl)-1H-pyrazol-1-yl]azetidin-3-yl}acetonitrile tris(trifluoroacetate)] | < 10 | ≧10 | – | –
3 | N#CCC1(n2cc(-c3ncnc4[nH]ccc34)cn2)CN([C@H]2CC[C@@H](Oc3cc(CN4CCC4)nc(C(F)(F)F)n3)CC2)C1 [Example 23, {1-(cis-4-{[6-(azetidin-1-ylmethyl)-2-(trifluoromethyl)pyrimidin-4-yl]oxy}cyclohexyl)-3-[4-(7H-pyrrolo[2,3-d]pyrimidin-4-yl)-1H-pyrazol-1-yl]azetidin-3-yl}acetonitrile tris(trifluoroacetate)] | < 10 | ≧10 | – | –
4 | COCCCNCc1cc(O[C@H]2CC[C@@H](N3CC(CC#N)(n4cc(-c5ncnc6[nH]ccc56)cn4)C3)CC2)nc(C(F)(F)F)n1 [Example 40, {1-(cis-4-{[6-{[(3-methoxypropyl)amino]methyl}-2-(trifluoromethyl)pyrimidin-4-yl]oxy}cyclohexyl)-3-[4-(7H-pyrrolo[2,3-d]pyrimidin-4-yl)-1H-pyrazol-1-yl]azetidin-3-yl}acetonitrile tris(trifluoroacetate)] | < 10 | ≧10 | – | –
5 | COCCNCc1cc(O[C@H]2CC[C@@H](N3CC(CC#N)(n4cc(-c5ncnc6[nH]ccc56)cn4)C3)CC2)nc(C(F)(F)F)n1.O=C(O)C(F)(F)F.O=C(O)C(F)(F)F.O=C(O)C(F)(F)F [Example 22, {1-(cis-4-{[6-{[(2-methoxyethyl)amino]methyl}-2-(trifluoromethyl)pyrimidin-4-yl]oxy}cyclohexyl)-3-[4-(7H-pyrrolo[2,3-d]pyrimidin-4-yl)-1H-pyrazol-1-yl]azetidin-3-yl}acetonitrile tris(trifluoroacetate)] | < 10 | ≧10 | – | –
6 | CCN(CCO)Cc1cc(O[C@H]2CC[C@@H](N3CC(CC#N)(n4cc(-c5ncnc6[nH]ccc56)cn4)C3)CC2)nc(C(F)(F)F)n1 [Example 13, {1-(cis-4-{[6-{[ethyl(2-hydroxyethyl)amino]methyl}-2-(trifluoromethyl)pyrimidin-4-yl]oxy}cyclohexyl)-3-[4-(7H-pyrrolo[2,3-d]pyrimidin-4-yl)-1H-pyrazol-1-yl]azetidin-3-yl}acetonitrile tris(trifluoroacetate) (salt)] | < 10 | ≧10 | – | –
7 | COCC(C)NCc1cc(O[C@H]2CC[C@@H](N3CC(CC#N)(n4cc(-c5ncnc6[nH]ccc56)cn4)C3)CC2)nc(C(F)(F)F)n1 (stereo partly drawn) [Example 41, {1-(cis-4-{[6-{[(2-methoxy-1-methylethyl)amino]methyl}-2-(trifluoromethyl)pyrimidin-4-yl]oxy}cyclohexyl)-3-[4-(7H-pyrrolo[2,3-d]pyrimidin-4-yl)-1H-pyrazol-1-yl]azetidin-3-yl}acetonitrile tris(trifluoroacetate)] | < 10 | ≧10 | – | –
8 | CC(C)(CO)c1cc(O[C@H]2CC[C@@H](N3CC(CC#N)(n4cc(-c5ncnc6[nH]ccc56)cn4)C3)CC2)nc(C(F)(F)F)n1 [Example 62, {1-(cis-4-{[6-(2-hydroxy-1,1-dimethylethyl)-2-(trifluoromethyl)pyrimidin-4-yl]oxy}cyclohexyl)-3-[4-(7H-pyrrolo[2,3-d]pyrimidin-4-yl)-1H-pyrazol-1-yl]azetidin-3-yl}acetonitrile tris(trifluoroacetate) (salt)] | < 10 | ≧10 | – | –
9 | CC(C)NCc1cc(O[C@H]2CC[C@@H](N3CC(CC#N)(n4cc(-c5ncnc6[nH]ccc56)cn4)C3)CC2)nc(C(F)(F)F)n1.O=C(O)C(F)(F)F.O=C(O)C(F)(F)F.O=C(O)C(F)(F)F [Example 6, {1-(cis-4-{[6-[(isopropylamino)methyl]-2-(trifluoromethyl)pyrimidin-4-yl]oxy}cyclohexyl)-3-[4-(7H-pyrrolo[2,3-d]pyrimidin-4-yl)-1H-pyrazol-1-yl]azetidin-3-yl}acetonitrile tris(trifluoroacetate)] | < 10 | ≧10 | – | –
10 | N#CCC1(n2cc(-c3ncnc4[nH]ccc34)cn2)CN([C@H]2CC[C@@H](Oc3cc(C(=O)N4CCCC4)nc(C(F)(F)F)n3)CC2)C1 [Example 51, {1-(cis-4-{[6-(pyrrolidin-1-ylcarbonyl)-2-(trifluoromethyl)pyrimidin-4-yl]oxy}cyclohexyl)-3-[4-(7H-pyrrolo[2,3-d]pyrimidin-4-yl)-1H-pyrazol-1-yl]azetidin-3-yl}acetonitrile bis(trifluoroacetate)] | < 10 | ≧10 | – | –
11 | CCNC(=O)c1cc(O[C@H]2CC[C@@H](N3CC(CC#N)(n4cc(-c5ncnc6[nH]ccc56)cn4)C3)CC2)nc(C(F)(F)F)n1 [Example 49, 6-[(cis-4-{3-(cyanomethyl)-3-[4-(7H-pyrrolo[2,3-d]pyrimidin-4-yl)-1H-pyrazol-1-yl]azetidin-1-yl}cyclohexyl)oxy]-N-ethyl-2-(trifluoromethyl)pyrimidine-4-carboxamide bis(trifluoroacetate)] | < 10 | ≧10 | – | –
12 | N#CCC1(n2cc(-c3ncnc4[nH]ccc34)cn2)CN([C@H]2CC[C@@H](Oc3cc(CN)nc(C(F)(F)F)n3)CC2)C1 [Example 3, {1-(cis-4-{[6-(Aminomethyl)-2-(trifluoromethyl)pyrimidin-4-yl]oxy}cyclohexyl)-3-[4-(7H-pyrrolo[2,3-d]pyrimidin-4-yl)-1H-pyrazol-1-yl]azetidin-3-yl}acetonitrile tetrakis(trifluoroacetate)] | < 10 | ≧10 | – | –

The next lines start with the values.

Row | IC50 ([1]; Table 4) [nM] | JAK2/JAK1 IC50 ratio ([2]; Table 4) | IC50 ([1]; Table 5) [nM] | JAK2/JAK1 IC50 ratio ([2]; Table 5) | SMILES
13 | – | – | < 10 | ≧10 | N#CCC1(n2cc(-c3ncnc4[nH]ccc34)cn2)CN([C@H]2CC[C@@H](Oc3cc(CO)cc(C(F)(F)F)n3)CC2)C1 [Example 64, {1-(cis-4-{[4-(hydroxymethyl)-6-(trifluoromethyl)pyridin-2-yl]oxy}cyclohexyl)-3-[4-(7H-pyrrolo[2,3-d]pyrimidin-4-yl)-1H-pyrazol-1-yl]azetidin-3-yl}acetonitrile bis(trifluoroacetate)]
14 | – | – | < 10 | ≧10 | CN(C)Cc1cc(O[C@H]2CC[C@@H](N3CC(CC#N)(n4cc(-c5ncnc6[nH]ccc56)cn4)C3)CC2)nc(C(F)(F)F)c1 [Example 68, {1-(cis-4-{[4-[(dimethylamino)methyl]-6-(trifluoromethyl)pyridin-2-yl]oxy}cyclohexyl)-3-[4-(7H-pyrrolo[2,3-d]pyrimidin-4-yl)-1H-pyrazol-1-yl]azetidin-3-yl}acetonitrile tris(trifluoroacetate)]
15 | – | – | < 10 | ≧10 | N#CCC1(n2cc(-c3ncnc4[nH]ccc34)cn2)CN([C@H]2CC[C@@H](Oc3cc(C(=O)N4CC(C#N)C4)cc(C(F)(F)F)n3)CC2)C1 [Example 91, 1-[2-[(cis-4-{3-(cyanomethyl)-3-[4-(7H-pyrrolo[2,3-d]pyrimidin-4-yl)-1H-pyrazol-1-yl]azetidin-1-yl}cyclohexyl)oxy]-6-(trifluoromethyl)isonicotinoyl]azetidine-3-carbonitrile bis(trifluoroacetate)]
16 | – | – | < 10 | ≧10 | C[C@@H](CO)NC(=O)c1cc(O[C@H]2CC[C@@H](N3CC(CC#N)(n4cc(-c5ncnc6[nH]ccc56)cn4)C3)CC2)nc(C(F)(F)F)c1 [Example 84, 2-[(cis-4-{3-(cyanomethyl)-3-[4-(7H-pyrrolo[2,3-d]pyrimidin-4-yl)-1H-pyrazol-1-yl]azetidin-1-yl}cyclohexyl)oxy]-N-[(1S)-2-hydroxy-1-methylethyl]-6-(trifluoromethyl)isonicotinamide bis(trifluoroacetate)]
17 | < 10 | ≧10 | – | – | N#CCC1(n2cc(-c3ncnc4[nH]ccc34)cn2)CN([C@H]2CC[C@@H](Oc3cc(C4(CO)CC4)nc(C(F)(F)F)n3)CC2)C1 [Example 63, {1-(cis-4-{[6-[1-(hydroxymethyl)cyclopropyl]-2-(trifluoromethyl)pyrimidin-4-yl]oxy}cyclohexyl)-3-[4-(7H-pyrrolo[2,3-d]pyrimidin-4-yl)-1H-pyrazol-1-yl]azetidin-3-yl}acetonitrile bis(trifluoroacetate) (salt)]
18 | – | – | < 10 | ≧10 | N#CCC1(n2cc(-c3ncnc4[nH]ccc34)cn2)CN([C@H]2CC[C@@H](Oc3cc(C(=O)N4CC(O)C4)cc(C(F)(F)F)n3)CC2)C1 [Example 89, {1-(cis-4-{[4-[(3-hydroxyazetidin-1-yl)carbonyl]-6-(trifluoromethyl)pyridin-2-yl]oxy}cyclohexyl)-3-[4-(7H-pyrrolo[2,3-d]pyrimidin-4-yl)-1H-pyrazol-1-yl]azetidin-3-yl}acetonitrile bis(trifluoroacetate)]
